Data set [1] concerns the target T1, ovine COX-1 (Ovis aries, UniProt P05979).
T1 construct: purchased Cayman Chemical Co., Ann Arbor, MI, USA
T1 sequence (P05979 25-600): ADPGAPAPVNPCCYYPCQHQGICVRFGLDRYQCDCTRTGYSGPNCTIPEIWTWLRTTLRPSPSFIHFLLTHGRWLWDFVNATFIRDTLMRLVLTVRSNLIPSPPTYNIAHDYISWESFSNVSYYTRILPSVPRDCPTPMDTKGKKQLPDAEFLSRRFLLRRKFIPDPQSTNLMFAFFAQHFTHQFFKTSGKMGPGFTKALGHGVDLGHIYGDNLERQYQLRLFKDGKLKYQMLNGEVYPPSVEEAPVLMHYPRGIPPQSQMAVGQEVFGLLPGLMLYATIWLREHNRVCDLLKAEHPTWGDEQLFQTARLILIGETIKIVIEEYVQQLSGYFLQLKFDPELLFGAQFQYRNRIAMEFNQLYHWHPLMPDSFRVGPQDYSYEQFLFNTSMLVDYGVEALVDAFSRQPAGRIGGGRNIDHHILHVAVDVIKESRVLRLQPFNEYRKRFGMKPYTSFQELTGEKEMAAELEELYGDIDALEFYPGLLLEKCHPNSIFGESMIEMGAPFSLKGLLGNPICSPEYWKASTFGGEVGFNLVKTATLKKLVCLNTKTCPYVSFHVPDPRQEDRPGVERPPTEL
Description: In vitro COX-1 inhibition (Cayman COX Inhibitor Screening Assay kit). The settings on record: for IC50: read-out: Experimental IC50 COX-1; for % Inhibition (COX-1): Compound concentration 50 μΜ, arachidonic acid 0.1 μM. The format is biochemical. How it is done: (§1) The COX-1 and COX-2 activities of the compounds were measured using ovine COX-1 and human recombinant COX-2 enzymes included in the “COX Inhibitor Screening Assay” kit provided by Cayman (Cayman Chemical Co., Ann Arbor, MI, USA) as reported previously

For data set [2], the target named is T2, human recombinant COX-2 (Homo sapiens, UniProt P35354).
T2 construct: purchased Cayman Chemical Co., Ann Arbor, MI, USA
T2 sequence (P35354 18-604): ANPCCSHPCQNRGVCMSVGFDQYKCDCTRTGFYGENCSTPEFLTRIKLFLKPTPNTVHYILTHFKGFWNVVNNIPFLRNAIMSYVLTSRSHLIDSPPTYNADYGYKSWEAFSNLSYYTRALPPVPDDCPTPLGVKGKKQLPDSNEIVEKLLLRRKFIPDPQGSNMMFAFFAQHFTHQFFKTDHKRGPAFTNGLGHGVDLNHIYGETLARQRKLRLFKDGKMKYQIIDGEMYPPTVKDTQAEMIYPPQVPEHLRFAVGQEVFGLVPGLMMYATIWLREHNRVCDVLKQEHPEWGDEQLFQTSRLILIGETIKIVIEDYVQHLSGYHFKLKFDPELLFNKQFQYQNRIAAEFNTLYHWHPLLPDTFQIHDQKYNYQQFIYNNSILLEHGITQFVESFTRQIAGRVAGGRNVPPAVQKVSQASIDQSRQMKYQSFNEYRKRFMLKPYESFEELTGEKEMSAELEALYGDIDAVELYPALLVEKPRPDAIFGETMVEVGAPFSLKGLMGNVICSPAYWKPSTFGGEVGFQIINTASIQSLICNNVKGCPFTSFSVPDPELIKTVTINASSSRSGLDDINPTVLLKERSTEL
In words: In vitro COX-2 inhibition (Cayman COX Inhibitor Screening Assay kit). The format is biochemical. Conditions: for IC50: read-out: Experimental IC50 COX-2; for % Inhibition (COX-2): Compound concentration 50 μΜ, arachidonic acid 0.1 μM. How it is done: as §1

Data set [3] relates to carrageenan mice paw oedema. Description: Carrageenin-induced mouse paw edema. The format is in vivo, mice (AKR). The settings on record: for inhibition in vivo at 0.1 µmol/g: Mus musculus, ip, read-out: CPE, %; for anti-inflammatory activity, reference compounds: dose not given. How it is done:
From the data of Table 7 it is obvious that anti-inflammatory activity of alkylsulfones and sulfoxides of furan-3(2H)-ones, including annelated derivatives are very similar.
The anti-inflammatory activity of compounds was performed using the carrageenan mice paw oedema assay. Animal of both sex (AKR), with exception of pregnant females were housed under standard conditions, receiving only water during the experimental period. […] The detailed description of the whole experiment reported previously. All the biological experiments were carried out in full compliance with the European Convention for the Protection of Vertebrate Animals used for Experimental or Other Scientific Purposes (ETS NO 123, Strasbourg, 03/18/1986): Strasbourg (France). European Treaty Series, № 123, March 18, 1986. 11 P. The project identification code and date of approval is 350880/3468 of 15-12-2014, University of Thessaloniki.
For orientation: In the carrageenan paw model, swelling and tenderness develop within hours.

The test system of data set [4] is MCF-7 cells. Description: Combination (synergy) growth assay in MCF-7 cells, Combination Index. The format is cell-based, human. The settings on record: MCF-7, 48 h; for CI, combination with 5-fluorouracil / CI, combination with gefitinib: CI <1 synergy, >1 antagonism. As to the method:
In addition, exposure of the MCF-7 cells to each of the compounds in combination with each one of the two anti-neoplastic drugs was performed in order to study the synergistic effect of the compounds. The results are shown in Table 9 and Figure 5 and Figure 6.

The subject of data set [5] is MCF-7 cells. In words: Growth inhibition assay, MCF-7 cells. The format is cell-based, human. Conditions: 48 h exposure.
Description: The cells were grown in the presence of each of the selected compounds as well as of the two well-known anti-neoplastic drugs gefitinib and 5-fluorouracil.
Each cell culture was treated appropriately, ensuring that DMSO concentration was kept below ≤ 0.2% (v/v) after every dilution. Cells were seeded in 24-well plates, at an initial density of 5 × 10^4 cells/mL. […] Cells were allowed to grow for additional 48 h before being harvested by trypsinization and subsequently counted (cell density; number of cells/mL) using a hemocytometer (Neubauer counting chamber) and optical microscopy. Cell growth was expressed as a percentage relative to that for the untreated control culture (only cells and medium, CTL).
The mark [6] stands for this setting: Dose 0.1 µmol/g, intraperitoneally, simultaneously with carrageenin.

Like-named read-outs stand apart in the source and are kept apart here.

As usually defined, the IC50 is the point on the concentration scale where inhibition reaches its midpoint. As a reminder, the melting point is the temperature of the solid-liquid transition.

On to `CC1(C)OC(c2ccc(F)cc2)=C(c2ccc(S(N)(=O)=O)cc2)C1=O` [1w, 5-(4′-Fluorophenyl)-2,2-dimethyl-4-[4′-(aminosulfonyl)phenyl]-furan-3(2H)-one], for which the melting point is 167 to 169 °C. Also, the IC50 in data set [1] amounted to 70 µM. Further, in data set [2], the 50% inhibitory concentration (IC50) is more than 50 µM. Also, in data set [3] (setting [6]), the inhibition in vivo at 0.1 µmol/g was found to be 43.7%.

With `C[S+]([O-])c1ccc(C2=C(c3ccccc3)OC(C)(C)C2=O)cc1` (stereo not drawn) [1b, 2,2-Dimethyl-4-[4′-(methylsulfinyl)phenyl]-5-phenylfuran-3(2H)-one], the inhibition in vivo at 0.1 µmol/g in data set [3] (setting [6]) came to 47%.

Regarding `C[S+]([O-])c1ccc(C2=C(c3cccc(Cl)c3)OC(C)(C)C2=O)cc1` (stereo not drawn) [1n, 5-(3′-Chlorophenyl)-2,2-dimethyl-4-[4′-(methylsulfinyl)phenyl]-furan-3(2H)-one], the inhibition in vivo at 0.1 µmol/g in data set [3] (setting [6]) is 51%.

In the case of `COc1ccc2cc([C@H](C)C(=O)O)ccc2c1` [Naproxen, reference compound], the IC50 in data set [2] is 50 µM.

`CC1(C)OC(c2ccc(S(C)(=O)=O)cc2)=C(c2cccc(Cl)c2)C1=O` [E-3, reference compound]: the inhibition in vivo at 0.1 µmol/g in data set [3] (setting [6]) was 52.1%.

On to `Cc1ccc(-c2cc(C(F)(F)F)nn2-c2ccc(S(N)(=O)=O)cc2)cc1` [Celecoxib, reference compound], for which the “Combination Effect with 5-fluorouracil” value in data set [4] (+ 0.3 μM 5-fu) is recorded as “antagonism”. Also, the “% Cell Growth, combination with 5-fluorouracil” value in data set [4] (+ 0.3 μM 5-fu (21.3 μM 1h, 2.9 μM 1g, 3.8 μM x-1, 29 μM cel)) turned out to be 49.3%. The “CI, combination with 5-fluorouracil” value in data set [4] (+ 0.3 μM 5-fu) is listed as 1.57; in data set [4] (+ 0.3 μM 5-fu, listed as cel), more than 1. For the same molecule, the “Combination Effect with gefitinib” value in data set [4] (+ 70 μM gef) is recorded as “antagonism”. For the same molecule, the “% Cell Growth, combination with gefitinib” value in data set [4] (+ 70 μM gef (27.5 μM 1h, 10 μM 1g, 10 μM x-1, 29 μM cel)) is listed as 56.8%. Also, the “CI, combination with gefitinib” value is 9.8 in data set [4] (+ 70 μM gef) and more than 1 in data set [4] (+ 70 μM gef, listed as cel). The IC50 was determined as 29.2 µM in data set [5] and 29.2 µM in data set [5] (Homo sapiens, MCF7, 48 h). The “anti-inflammatory activity, reference compounds” value in data set [3] was 64.6%.

`CC1(C)Oc2c(c3ccc(S(C)(=O)=O)cc3c3cc(F)ccc23)C1=O` [x-2, 3-Fluoro-2′,2′-dimethyl-6-(methylsulfonyl)-phenanthro[9,10-b]furan-3′(2′H)-one] displayed a melting point of 242 to 244 °C. The inhibition in vivo at 0.1 µmol/g in data set [3] worked out at 40%.

With `CC1(C)OC(c2ccc(Cl)cc2)=C(c2ccc(S(C)(=O)=O)cc2)C1=O` [1k, 5-(4′-Chlorophenyl)-2,2-dimethyl-4-[4′-(methylsulfonyl)phenyl]-furan-3(2H)-one], the melting point lay within 223 to 225 °C. In addition, in data set [1], the “% Inhibition (COX-1)” value was 80% and the concentration for half-maximal inhibition (IC50) is 29 µM. Further, in data set [2], the “% Inhibition (COX-2)” value is reported as 6% and the IC50 was more than 50 µM. In addition, the inhibition in vivo at 0.1 µmol/g in data set [3] (setting [6]) turned out to be 50.6%.

Consider `CC1(C)OC(c2cccc(Cl)c2)=C(c2ccc(S(C)(=O)=O)cc2)C1=O` [1o, 5-(3′-Chlorophenyl)-2,2-dimethyl-4-[4′-(methylsulfonyl)phenyl]-furan-3(2H)-one], for which the melting point was in the range of 219 to 221 °C. Also, the IC50 in data set [1] turned out to be 22 µM. Besides, the concentration for half-maximal inhibition (IC50) in data set [2] was found to be 71 µM. Moreover, in data set [3] (setting [6]), the inhibition in vivo at 0.1 µmol/g was 50.7%.

With `COc1ccc2c(c1)c(CC(=O)O)c(C)n2C(=O)c1ccc(Cl)cc1` [indomethacin, reference compound], the “anti-inflammatory activity, reference compounds” value in data set [3] worked out at 47%.

`CC1(C)OC(c2ccccc2)=C(c2ccc(S(N)(=O)=O)cc2)C1=O` [1q, 5-(4′-Phenyl)-2,2-dimethyl-4-[4′-(aminosulfonyl)phenyl]-furan-3(2H)-one]: the melting point was 158 to 160 °C. Besides, the inhibition in vivo at 0.1 µmol/g in data set [3] (setting [6]) stood at 38%.

`CNS(=O)(=O)c1ccc(C2=C(c3ccc(Cl)cc3)OC(C)(C)C2=O)cc1` [1vMe, 5-(4′-Chlorophenyl)-2,2-dimethyl-4-[4′-(methylaminosulfonyl)phenyl]-furan-3(2H)-one] returned a melting point of 204 to 205 °C.

With `O=c1[nH]cc(F)c(=O)[nH]1` [5-Fluorouracil, reference compound], in data set [5], the IC50 came to 0.03 µM.

For `CC1(C)OC(c2ccccc2)=C(c2ccc(S(C)(=O)=O)cc2)C1=O` [1c, 2,2-Dimethyl-4-[4′-(methylsulfonyl)phenyl]-5-phenylfuran-3(2H)-one], in data set [1], the “% Inhibition (COX-1)” value is recorded as 0%. Moreover, in data set [2], the “% Inhibition (COX-2)” value was determined as 0%. Besides, in data set [3] (setting [6]), the inhibition in vivo at 0.1 µmol/g worked out at 50.2%.

Consider `C[S+]([O-])c1ccc(C2=C(c3ccc(Cl)cc3)OC(C)(C)C2=O)cc1` (stereo not drawn) [1j], for which, in data set [1], the “% Inhibition (COX-1)” value was 0%. Moreover, in data set [2], the “% Inhibition (COX-2)” value is listed as 0%. In addition, the inhibition in vivo at 0.1 µmol/g in data set [3] (setting [6]) was 54%.

Regarding `CC1(C)OC(c2ccc(S(C)(=O)=O)cc2)=C(c2ccccc2)C1=O` [E-1, reference compound], in data set [3] (setting [6]), the inhibition in vivo at 0.1 µmol/g came out at 57.7%.

For the molecule `CC1(C)OC(c2ccc(Cl)cc2)=C(c2ccc(S(N)(=O)=O)cc2)C1=O` [1v, 5-(4′-Chlorophenyl)-2,2-dimethyl-4-[4′-(aminosulfonyl)phenyl]-furan-3(2H)-one], the melting point was 224 to 225 °C. Moreover, in data set [1], the half-maximal inhibitory concentration (IC50) stood at 28 µM. Also, the IC50 in data set [2] is 20 µM. Moreover, the inhibition in vivo at 0.1 µmol/g in data set [3] (setting [6]) was 44.3%.

In turn, `CC1(C)OC(c2cccc(Cl)c2)=C(c2ccc(S(N)(=O)=O)cc2)C1=O` [1u, 5-(3′-Chlorophenyl)-2,2-dimethyl-4-[4′-(aminosulfonyl)phenyl]-furan-3(2H)-one] yielded a melting point of 198 to 200 °C.
